Results from ChEMBL document CHEMBL1641487, “Aspergilones A and B, two benzylazaphilones with an unprecedented carbon skeleton from the gorgonian-derived fungus Aspergillus sp” (Bioorg Med Chem Lett, 2011).
Converted amounts (≈) assume the structure as drawn.

Columns and labels:
A549 = test: Cytotoxicity against human A549 cells; format: functional, cell-based
MCF7 = test: Cytotoxicity against human MCF7 cells; format: functional, cell-based
HL-60 = test: Cytotoxicity against human HL60 cells; format: functional, cell-based
Amphibalanus amphitrite = test: Antifouling activity against Balanus amphitrite assessed as larval settlement barnacle; format: functional, organism-based

SMILES	IC50 (A549)	IC50 (MCF7)	IC50 (HL-60)	EC50 (Amphibalanus amphitrite)
CC1=C2C(=CO[C@@H](C)[C@@H]2C)C(=O)[C@@](Cc2ccccc2)(C[C@]2(Cc3ccccc3)C(=O)C3=CO[C@@H](C)[C@H](C)C3=C(C)C2=O)C1=O [ASPERGILONE B]	> 50 µg/mL	> 50 µg/mL	> 50 µg/mL	–
CC1=C2C(=CO[C@@H](C)[C@@H]2C)C(=O)C(Cc2ccccc2)(Cc2ccccc2)C1=O [ASPERGILONE A]	37 µg/mL (≈ 95.7 µM)	25 µg/mL (≈ 64.7 µM)	3.2 µg/mL (≈ 8.28 µM)	25 µg/mL (≈ 64.7 µM)
